Laboratory results from article PMC12635268, “Novel antimicrobial peptides and peptide-microbiome crosstalk in Appalachian salamander skin” (NPJ Biofilms and Microbiomes, 2025).
Converted amounts (≈) assume the structure as drawn. Peptide text beside a SMILES is read from it.

Columns and labels:
[1] = system: P. aeruginosa ATCC 27853; assay: microbe, parasite or virus in culture
Procedure: (§1) Antimicrobial susceptibility testing of the 20 synthesized peptides against 17 bacterial strains of clinical relevance in the ESKAPEE panel was conducted using minimum inhibitory concentration (MIC) assays following the broth microdilution method outlined by Parker et al.[91]. The ESKAPEE panel is comprised of fourteen American Type Culture Collection (ATCC) strains and three Multidrug Resistant Organism Repository and Surveillance Network (MRSN) bacterial strains. These strains represent at least one drug-susceptible strain and one drug-resistant strain for each bacterium to assess drug efficacy across various resistance mechanisms. This panel is comprised of the following bacterial species and strains: E. faecium (ATCC 19434, ATCC 49224), S. aureus (ATCC 25923, ATCC 43300), K. pneumoniae (ATCC 700603, ATCC 13883, MRSN 1320), A. baumannii (ATCC 17978, ATCC 19606, MRSN 959), P. aeruginosa (ATCC 15692, ATCC 27853, MRSN 5519), E. cloacae (ATCC 13047, ATCC 35549), and E. coli (ATCC 35218, ATCC 43888). Bacteria were grown in cation-adjusted Mueller-Hinton broth (CAMHB) to achieve a final inoculum of 1 × 10⁵ CFU/mL. CAMHB is selected for its batch-to-batch reproducibility, low levels of antimicrobial inhibitors, and ability to support the growth of most bacterial pathogens.
(§2) Briefly, lyophilized peptides were dissolved in 0.2% TFA + 0.4% BSA in water to 2.56 mg/mL, ultrasonicated for 20 min, diluted 10-fold into CAMHB, and then serially diluted 2-fold in 0.02% TFA + 0.04% BSA in CAMHB and assayed at a concentration of 0.25 to 128 μg/mL. Assays were set up using the Tecan Freedom EVO liquid handling robot and software (Tecan, Switzerland) with 50 μL of bacterial inoculum and 50 μL of peptide transferred into round-bottom 96-well microtiter plates. Each plate assay was performed in duplicate and incubated at 37 °C for 20 h without agitation. Bacterial growth was assessed using the BIOMIC V3 Image Analysis system (Giles Scientific, USA) and the MIC values were determined visually according to the Clinical and Laboratory Standards Institute (CLSI) guidelines.

[2] = system: E. faecium ATCC 49224; assay: microbe, parasite or virus in culture; conditions: E. faecium 49224; CAMHB, 1 × 10⁵ CFU/mL, 0.25 to 128 μg/mL, 37 °C 20 h, duplicate, read visually (CLSI)
Procedure: as §1, §2

[3] = system: E. cloacae ATCC 13047; assay: microbe, parasite or virus in culture; conditions: E. cloacae 13047; CAMHB, 1 × 10⁵ CFU/mL, 0.25 to 128 μg/mL, 37 °C 20 h, duplicate, read visually (CLSI)
Procedure: as §1, §2

[4] = system: E. coli ATCC 43888; assay: microbe, parasite or virus in culture; conditions: ATCC 43888, 20 h
Procedure: as §1, §2

[5] = system: E. coli ATCC 35218; assay: microbe, parasite or virus in culture; conditions: ATCC 35218, 20 h
Procedure: as §1, §2

[6] = system: S. aureus ATCC 43300; assay: microbe, parasite or virus in culture; conditions: S. aureus 43300; CAMHB, 1 × 10⁵ CFU/mL, 0.25 to 128 μg/mL, 37 °C 20 h, duplicate, read visually (CLSI)
Procedure: as §1, §2

[7] = system: P. aeruginosa MRSN 5519; assay: microbe, parasite or virus in culture; conditions: P. aeruginosa 5519; CAMHB, 1 × 10⁵ CFU/mL, 0.25 to 128 μg/mL, 37 °C 20 h, duplicate, read visually (CLSI)
Procedure: as §1, §2

[8] = system: A. baumannii ATCC 19606; assay: microbe, parasite or virus in culture; conditions: A. baumannii 19606; CAMHB, 1 × 10⁵ CFU/mL, 0.25 to 128 μg/mL, 37 °C 20 h, duplicate, read visually (CLSI)
Procedure: as §1, §2

[9] = system: E. cloacae ATCC 35549; assay: microbe, parasite or virus in culture; conditions: E. cloacae 35549; CAMHB, 1 × 10⁵ CFU/mL, 0.25 to 128 μg/mL, 37 °C 20 h, duplicate, read visually (CLSI)
Procedure: as §1, §2

[10] = system: E. faecium ATCC 19434; assay: microbe, parasite or virus in culture; conditions: E. faecium 19434; CAMHB, 1 × 10⁵ CFU/mL, 0.25 to 128 μg/mL, 37 °C 20 h, duplicate, read visually (CLSI)
Procedure: as §1, §2

[11] = system: A. baumannii ATCC 17978; assay: microbe, parasite or virus in culture; conditions: A. baumannii 17978; CAMHB, 1 × 10⁵ CFU/mL, 0.25 to 128 μg/mL, 37 °C 20 h, duplicate, read visually (CLSI)
Procedure: as §1, §2

[12] = system: K. pneumoniae ATCC 700603; assay: microbe, parasite or virus in culture; conditions: K. pneumoniae 700603; CAMHB, 1 × 10⁵ CFU/mL, 0.25 to 128 μg/mL, 37 °C 20 h, duplicate, read visually (CLSI)
Procedure: as §1, §2

[13] = system: K. pneumoniae ATCC 13883; assay: microbe, parasite or virus in culture; conditions: K. pneumoniae 13883; CAMHB, 1 × 10⁵ CFU/mL, 0.25 to 128 μg/mL, 37 °C 20 h, duplicate, read visually (CLSI)
Procedure: as §1, §2

[14] = system: S. aureus ATCC 25923; assay: microbe, parasite or virus in culture
Procedure: as §1, §2

[15] = system: P. aeruginosa PA01 (Si); assay: microbe, parasite or virus in culture; format: cell-based; conditions: Si
From the text: Supplement 41522_2025_837_MOESM13_ESM.xlsx, sheet "Table_S13_ESKAPEE-MIC" | column: Bacterial MIC (µg/mL)

[16] = system: K. pneumoniae 4640; conditions: K. pneumoniae 4640; CAMHB, 1 × 10⁵ CFU/mL, 0.25 to 128 μg/mL, 37 °C 20 h, duplicate, read visually (CLSI)
[17] = system: A. baumannii 5075; conditions: CAMHB, 1 × 10⁵ CFU/mL, 0.25 to 128 μg/mL, 37 °C 20 h, duplicate, read visually (CLSI)
[18] = system: P. aeruginosa PA01; assay: microbe, parasite or virus in culture; format: cell-based; conditions: 20 h
Procedure: as §1, §2

[19] = parameters: method as in Biomatik (vendor); conditions: 1.0 mg peptide in 1.0 ml solvent; peptides synthesized by Biomatik; ref Biomatik (vendor); cited from earlier work

SMILES	MIC [2]	MIC [3]	Bacterial MIC [4]	Bacterial MIC [5]	MIC [5]	MIC [6]	MIC [7]	MIC [8]	MIC [9]	MIC [10]	MIC [11]	MIC [12]	MIC [13]	Bacterial MIC [15]	MIC [16]	MIC [17]	MIC [18]	Suggest solvent (solubility) [19]	other results
CC[C@H](C)[C@H](NC(=O)[C@H](CO)NC(=O)[C@H](CO)NC(=O)[C@H](Cc1ccccc1)NC(=O)[C@H](CS)NC(=O)CNC(=O)CNC(=O)[C@H](CCCNC(=N)N)NC(=O)[C@H](CCCNC(=N)N)NC(=O)[C@H](Cc1ccc(O)cc1)NC(=O)[C@H](CS)NC(=O)[C@H](CC(N)=O)NC(=O)[C@H](Cc1c[nH]c2ccccc12)NC(=O)[C@@H]1CCCN1C(=O)[C@H](CCCNC(=N)N)NC(=O)[C@H](C)NC(=O)[C@H](CCCNC(=N)N)NC(=O)[C@H](CCCNC(=N)N)NC(=O)[C@@H](NC(=O)[C@H](CCCNC(=N)N)NC(=O)[C@@H](NC(=O)[C@H](CCCNC(=N)N)NC(=O)[C@H](CCCCN)NC(=O)[C@@H](N)CC(C)C)[C@@H](C)O)C(C)C)C(=O)NCC(=O)N[C@@H](CO)C(=O)N[C@@H](CC(C)C)C(=O)N[C@H](C(=O)N1CCC[C@H]1C(=O)N[C@H](C(=O)O)C(C)C)[C@@H](C)O [Pcin-CATH3] (H-LKRTRVRRARPWNCYRRGGCFSSIGSLTPV-OH; N-terminus and C-terminus assumed)	>128 µg/mL	>128 µg/mL	64 µg/mL	128 µg/mL	>128 µg/mL	>128 µg/mL	>128 µg/mL	64 µg/mL (≈ 18.3 µM)	>128 µg/mL	>128 µg/mL	64 µg/mL (≈ 18.3 µM)	>128 µg/mL	>128 µg/mL	32 µg/mL	>128 µg/mL	16 µg/mL (≈ 4.58 µM)	32 µg/mL (≈ 9.16 µM)	1.0mg peptide soluble in 1.0ml H2O	MIC ([1]; P. aeruginosa 27853, CAMHB, 1 × 10⁵ CFU/mL, 0.25 to 128 μg/mL, 37 °C 20 h, duplicate, read visually (CLSI)): >128 µg/mL; MIC ([14]; S. aureus 25923, CAMHB, 1 × 10⁵ CFU/mL, 0.25 to 128 μg/mL, 37 °C 20 h, duplicate, read visually (CLSI)): >128 µg/mL
CC[C@H](C)[C@H](NC(=O)[C@H](CO)NC(=O)[C@H](Cc1ccc(O)cc1)NC(=O)[C@H](CS)NC(=O)CNC(=O)[C@H](C)NC(=O)[C@H](CCCNC(=N)N)NC(=O)[C@H](CCCNC(=N)N)NC(=O)[C@H](Cc1ccc(O)cc1)NC(=O)[C@H](CS)NC(=O)[C@H](CCCCN)NC(=O)[C@H](Cc1c[nH]c2ccccc12)NC(=O)[C@@H]1CCCN1C(=O)[C@H](CCCNC(=N)N)NC(=O)[C@H](C)NC(=O)[C@H](CCCNC(=N)N)NC(=O)[C@H](CCCNC(=N)N)NC(=O)[C@@H](NC(=O)[C@H](CCCNC(=N)N)NC(=O)[C@@H](NC(=O)[C@H](CCCNC(=N)N)NC(=O)[C@H](CCCCN)NC(=O)[C@@H](N)CO)[C@@H](C)O)C(C)C)C(=O)N[C@H](C(=O)NCC(=O)N[C@@H](CCSC)C(=O)N[C@@H](Cc1ccccc1)C(=O)N[C@@H](CCCCN)C(=O)N[C@@H](CCCCN)C(=O)N[C@@H](CO)C(=O)O)[C@@H](C)CC [Pcin-CATH5] (H-SKRTRVRRARPWKCYRRAGCYSIIGMFKKS-OH; N-terminus and C-terminus assumed)	64 µg/mL (≈ 17.5 µM)	>128 µg/mL	16 µg/mL	16 to 32 µg/mL	32 µg/mL (≈ 8.74 µM)	64 µg/mL (≈ 17.5 µM)	>128 µg/mL	8 µg/mL (≈ 2.18 µM)	>128 µg/mL	64 µg/mL (≈ 17.5 µM)	8 µg/mL (≈ 2.18 µM)	>128 µg/mL	>128 µg/mL	8 to 16 µg/mL	>128 µg/mL	4 µg/mL (≈ 1.09 µM)	16 µg/mL (≈ 4.37 µM)	1.0mg peptide soluble in 1.0ml H2O	MIC ([1]; ATCC 27853, 20 h): >128 µg/mL; Bacterial MIC ([14]; ATCC 25923, 20 h): 128 µg/mL; MIC ([14]; ATCC 25923, 20 h): >128 µg/mL
